Laboratory results reported in US20120035260A1, “TELLURIUM-CONTAINING COMPOUNDS FOR AFFECTING FEMALE'S REPRODUCTIVE SYSTEM FOLLOWING CHEMOTHERAPY AND/OR RADIOTHERAPY” (BIOMAS LTD., priority 2009, published 2012).

How the values were obtained:
[1] = cited from earlier work
[2] = cancer patients, AS101 in combination with chemotherapy; cited from earlier work
ovarian follicles [3] = format: in vivo
Protocol: Follicular apoptosis was visualized using the TUNEL staining of ovaries from additional group of mice sacrificed at 12, 24 and 48 hours after a single injection of 150 mg/kg Cy.

tumor = conditions: cited from earlier work
ovarian follicles [4] = format: in vivo, female Balb/c mice; conditions: single 75, 100 or 150 mg/kg Cy or 4 weekly 75 mg/kg Cy, AS101 as co-treatment with Cy; for ratio of primary follicles relative to primordial follicles: FIG. 3A; for ratio of secondary follicles relative to primordial follicles: FIG. 3B
Protocol: (§1) 6 week old female Balb/c mice were divided randomly into 4 groups. The mice in the treatment groups received cyclophosphamide (Cy) with or without co-treatment with AS101. Control mice received injections of phosphate buffer saline (PBS) or AS101. Cy treatment consisted of a single intraperitoneal injection of 75, 100 or 150 mg/kg Cy, or 4 weekly injections of 75 mg/kg Cy. AS101 was injected at a dose of 10 mg/kg every other day starting 1 week prior to Cy administration until 1 week after the last administration of Cy. PBS was injected on the same days as described for AS101.
(§2) Both ovaries were removed 7 days after the last Cy administration treatment, and fixed in 4% paraformaldehyde in PBS. The ovaries were embedded in paraplast and serially sectioned to 5 μm slices, and stained with haematoxylin/eosin. Care was taken to ensure that both ovaries were removed from each mouse in their entirety for histological processing. Primordial, primary and secondary follicles were counted by two blinded examiners who were unaware of the treatments, using a light microscope (AxioImager Z1, Zeiss, Oberkochen, Germany) in bright-field mode using a X20 objective. To avoid counting the same follicle twice, only one section in each set of five consecutive sections was used. The relative distribution of different stages of early follicle growth was then calculated.
(§3) Follicles were classified as primordial follicles (PMF) if they contained an oocyte surrounded by a partial or complete layer of squamous pregranulosa cells without a theca layer. In this species, PMF are located almost exclusively in the ovarian cortex, and they are very small (about 15 μm diameter). The follicular count of each follicle type was then multiplied by 5 to reach a representative of total follicles [Meirow et al., Hum Reprod 1999; 14:1903-1907]. The data from follicular count is presented as the percentage of the count obtained from the PBS-treated control group.
The populations of primary follicles, secondary follicles and primordial follicles (PMF) were characterized following single injections of 75, 100 or 150 mg/kg Cy or 4 weekly injections of 75 mg/kg Cy.

[5] = system: anti-Mullerian hormone (AMH); experiment: Plasma anti-Mullerian hormone (AMH) levels by ELISA; format: in vivo, female Balb/c mice; conditions: 4 weekly injections of 75 mg/kg Cy; control (PBS) group 10.7±2.1 ng/ml
Protocol: as §1
Anti-Mullerian hormone (AMH) levels in the plasma were measured by ELISA techniques according to the manufacturer instruction (DSL, Webster, Tex.).
Mice were administered PBS, AS101, Cy or Cy+AS101 for 4 weeks, as described hereinabove.

[6] = system: ovarian primordial follicles (PMF); experiment: Primordial follicle (PMF) counts in ovaries of cyclophosphamide-treated mice; format: in vivo, female Balb/c mice; conditions: AS101 10 mg/kg every other day where co-treated; for ovarian PMF count, % of that of the control (PBS) group: ovaries removed 7 days after Cy
Protocol: as §1, §2, §3
Student's T-test was performed to assess the differences between groups. Statistical significance was determined at p<0.05.

| SMILES | survival of mice ([1]; mice treated with various cytotoxic drugs or radiation) | protection from hematopoietic damage ([1]; mice, lethal and sublethal doses of chemotherapeutic drugs, including cyclophosphamide) | severity of neutropenia, thrombocytopenia and alopecia that accompany chemotherapy [2] | TUNEL staining of ovary, follicle appearance (ovarian follicles [3]; co-therapy with a chemotherapeutic agent and AS101, FIG. 5C) | apoptotic (TUNEL) stain in primordial follicles (ovarian follicles [3]; ovary treated with AS101, FIG. 5B) | effect in combination with Cy (tumor; treatment of tumor-bearing mice) | anti-tumoral effect (tumor; variety of tumor models in mice and humans) | ratio of primary follicles relative to primordial follicles (ovarian follicles [4]) | ratio of secondary follicles relative to primordial follicles (ovarian follicles [4]) | plasma AMH levels [5] [ng/mL] | PMF count, % of that of the control group ([6]; 75 mg/kg Cy once a week for 4 weeks, ovaries removed 7 days after last Cy) | ovarian PMF count, % of that of the control (PBS) group ([6]; single i.p. injection of 75 mg/kg Cy) | ovarian PMF count, % of that of the control (PBS) group ([6]; single i.p. injection of 100 mg/kg Cy) | ovarian PMF count, % of that of the control (PBS) group ([6]; single i.p. injection of 150 mg/kg Cy) | apoptotic (TUNEL) staining in granulosa cells of growing follicles (ovarian follicles [3]; 24 hours after a single treatment with 150 mg/kg Cy, FIG. 5A) |
| --- | --- | --- | --- | --- | --- | --- | --- | --- | --- | --- | --- | --- | --- | --- | --- |
| Cl[TeH]1(Cl)(Cl)OCCO1 [AS101, ammonium trichloro(dioxyethylene-O,O′)tellurate] | increase the survival of mice | protect mice from hematopoietic damage | significant reduction in the severity | follicles destroyed by chemotherapy as well as healthy primordial follicles of ovary are observed | no apoptotic stain was detected | synergistic effect with Cy | exhibits an anti-tumoral effect | prevented the Cy-induced increase in these ratios | prevented the Cy-induced increase in these ratios |  |  |  |  |  |  |
| O=P1(N(CCCl)CCCl)NCCCO1 (centres unmarked) [Cy, cyclophosphamide] |  |  |  |  |  |  |  | increased the ratio | increased the ratio | 7.2 ± 1.9 | 12.2%±9.5% | 52.1%±15.1% | 48%±12.6% | 38%±22.2% | extensive apoptotic staining |
